According to patent publication US20250034194A1, “INHIBITORS OF ABNORMAL PHOSPHORYLATION AND TAU PROTEIN AGGREGATION” (UNIVERSITE DE PICARDIE JULES VERNE, priority 2021, published 2025):

How the values were obtained:
[1] = molecular target: T1, tau protein (4R2N, 441 amino acids) (Homo sapiens, UniProt P10636); assay: In vitro abnormal tau phosphorylation by GSK3β, competition with heparin (western blot); type: biochemical; settings: for ability to compete with heparin for abnormal tau phosphorylation by GSK3β / capacity to protect tau from its abnormal phosphorylation induced by heparin: molecule 60 μg/mL vs heparin 12 μg/mL; for ability to compete with heparin for abnormal tau phosphorylation by GSK3β: 1.5 to 6 h of reaction, AT270, Ser199/202; for capacity to protect tau from its abnormal phosphorylation induced by heparin: AT270 antibody
T1 construct: purchased Millipore (tau); Promega (GSK3β)
Description: Phosphorylation of tau protein is the most common post-translational modification to regulate tau activity and functions. The longest tau isoform (4R2N, 441 amino acids) containing 85 potential phosphorylation sites was used. In vitro phosphorylation of the tau protein is done by induction, on the one hand, (FIG. 5) and, on the other hand, according to a competition process between the LG2A molecules and heparin, conventionally used to induce abnormal tau phosphorylation in vitro (FIGS. 3, 4, 6, 7, 8, 9 and 10).
For abnormal tau phosphorylation tests, GSK3p, a kinase centrally involved in this process in the brains of subjects with Alzheimer's disease (AD), was used. Analysis of tau phosphorylation by GSK3b at sites characteristic of AD is possible by the western blot technique using specific antibodies that recognize abnormally phosphorylated sites in the brain or cerebrospinal fluid of AD subjects, such as the AT270 antibody which recognizes threonine 181 (Thr181), the PHF1 antibody which recognizes serines 396 and 404 (Ser396/Ser404), and the AT8 antibody, which recognizes the Ser199/Ser202/Thr205 site.
By competition: The tau protein (40 μg/mL) is phosphorylated by the GSK3β enzyme at 4 ng/mL (Promega) in the presence of ATP (Sigma-Aldrich) at 48 μM and protease inhibitors (Sigma-Aldrich, 1/100), in the buffer mentioned above. The ability of the LG2A molecules (60 μg/mL) to compete with heparin (12 μg/mL; Sigma-Aldrich) is evaluated. Thus if the signal in the presence of the molecules is less than that obtained with heparin alone, the molecules are then defined as “protectors” from abnormal tau phosphorylation.
In both systems (induction or competition), the tau protein is incubated at 37° C. with stirring in the presence of the different elements presented above. The reaction kinetics are monitored by taking 8 μL of the samples at 1.5 h, 3 h and 6 h of incubation. Loading buffer (Euromedex) and β-mercaptoethanol (Sigma-Aldrich) are added to each sample. The samples are then stored at −20° C. until analysis by western blot.
After denaturation of the samples by heating at 95° C. for 5 minutes, the samples are deposited simultaneously with the molecular weight marker (Precision Plus Protein™ Dual Color Standards; BIO-RAD) on a 10% acrylamide gel placed in an electrophoresis tank containing migration buffer (0.25 M Tris; 1.6 M Glycine; […]; pH 8.6).
The controls used for this phosphorylation experiment followed by western blot are: • the “native tau” protein, that is to say the non-phosphorylated tau protein. • the tau protein phosphorylated by GSK3b alone in the absence of heparin. • the tau protein phosphorylated in the presence of heparin, denoted “tau+heparin”. • the “external standard” corresponding to the tau protein phosphorylated in the presence of heparin for 3 h. This standard is carried out in an experiment independently of the phosphorylation experiments in the presence of LG2A compounds. It ensures that the western blot is carried out correctly.
Then the membrane is incubated overnight with stirring at +4° C. in a solution of PBS, 0.1% Tween and 1% milk containing the primary antibody specific for tau phosphorylation sites (AT270, ThermoScientific or S199-202, Millipore).
After incubation of the PVDF membrane in the chosen primary antibody, a succession of 3 washes of 5 minutes of the membrane is carried out in PBS and 0.1% Tween with stirring and the membrane is incubated for 1 h with stirring at room temperature in a solution of 1×PBS, 0.1% Tween and 1% milk containing the diluted secondary antibody (Jackson Immuno-Research).

[2] = molecular target: T1, tau protein (4R2N, 441 amino acids); settings: GSK3β; FIG. 2, Sepulveda-Diaz et al, 2015; cited from earlier work
[3] = system: tau phosphorylation (S262 site) in SH-SY5Y cells; assay: In cellulo tau phosphorylation test in the SH-SY5Y line (H2O2 stress induction); type: cell-based; settings: 24 hours, then H2O2
Procedure: The tau phosphorylation induction model on the SH-SY5Y cell line described in the Gly-CRRET laboratory article was used here (Sepulveda-Diaz et al., 2015).
In short, SH-SY5Y cells are seeded in 6-well plates and differentiated using retinoic acid (10 μM, Sigma Aldrich) for 5 days. On day 6, the cells are placed in the presence of the Mal16diS and Mal18diS molecules at different concentrations (1, 10 or 100 μg/mL), in a final volume of 2 mL simultaneously with a well not receiving molecules. After 24 hours, the molecules are removed and the stress inducer (H2O2, Sigma Aldrich) is added to the cell medium for 30 minutes. The cells are then rinsed with 1×PBS then lysed and recovered in RIPA buffer (Thermo Fisher). The protein extracts from the cells (10 μg) are then analysed by western blot according to the same procedure described above.
The tau phosphorylation site studied here is the S262 site (Thermo Fisher), normalized to the expression of the GAPDH protein (Sigma Aldrich). The bands are quantified using the Odyssey software of the LI-COR device allowing the p-tau/GAPDH ratio to be calculated for each of the conditions. The ratio obtained for each concentration of molecule is then expressed as a percentage of the ratio obtained for the control cells, i.e., not treated by the molecules. Thus a value less than 100% corresponds to protection provided by the molecules in this cellular model of tau phosphorylation induction.
The experiment was repeated at least 4 times for each molecule dose for the “Mal16diS” and “Mal18diS” molecules and at least twice for the “Cell16diS” and “Lac16diS” molecules. The mean and standard deviation of the replicates are shown in FIGS. 13 to 16; each of the values obtained for each dose is compared to that of the control without addition of molecule by means of a t-test. Statistical differences with p-value <0.05 and <0.001 are represented by “*” and “***” respectively.

[4] = system: SH-SY5Y; assay: Cytotoxicity study, MTT test; type: cell-based; settings: differentiated SH-SY5Y; 0.1 to 100 μg/mL; 24 hours
Procedure: In order to evaluate the level of toxicity of these molecules according to their concentration in the cellular environment, an MTT test (3-(4,5-dimethylthiazol-2-yl)-2,5-diphenyl tetrazolium bromide) is carried out (FIGS. 11 and 12) upstream of the phosphorylation tests in cellulo.
SH-SY5Y (ATCC-CRL-2266) are developed in Dulbecco's Modified Eagle Complete Medium (DMEM-GlutaMAX™, Life Technologies) with 10% foetal bovine serum (FBS) and 1% penicillin/streptomycin in an incubator at 37° C. with 5% CO2.
For this, the SH-SY5Y cells are cultured in a 6-well plate at a cell density of 200,000 cells/well and are differentiated using retinoic acid (10 μM, Sigma Aldrich) for 5 days. On day 6, the cells are brought into contact with LG2A molecules at different concentrations (0.1, 1, 10 or 100 μg/mL), in a final volume of 2 mL. After 24 hours, MTT (5 μg/mL; Sigma-Aldrich) is added to the cell medium for 2 hours at 37° C. Then the medium is removed and 200 μL of pure dimethylsulfoxide (DMSO, Sigma-Aldrich) are added to each well. The entire contents of each well are transferred to a 96-well plate and the absorbance is measured at 562 nm using the Infinite M1000 spectrofluorometer (Tecan).

T1 sequence (P10636 1-441 isoform P10636-8): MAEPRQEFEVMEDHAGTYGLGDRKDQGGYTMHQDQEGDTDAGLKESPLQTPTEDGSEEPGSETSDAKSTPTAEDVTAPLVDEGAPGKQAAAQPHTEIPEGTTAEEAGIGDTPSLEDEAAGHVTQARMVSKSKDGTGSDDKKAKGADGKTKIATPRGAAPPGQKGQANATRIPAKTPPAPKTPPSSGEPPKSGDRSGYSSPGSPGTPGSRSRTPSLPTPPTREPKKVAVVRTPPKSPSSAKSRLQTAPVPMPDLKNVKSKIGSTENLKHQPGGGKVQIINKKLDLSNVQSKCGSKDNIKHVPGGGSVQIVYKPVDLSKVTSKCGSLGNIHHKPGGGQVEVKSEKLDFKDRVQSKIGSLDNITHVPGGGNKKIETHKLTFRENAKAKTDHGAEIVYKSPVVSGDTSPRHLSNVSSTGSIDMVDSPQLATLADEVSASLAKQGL

Molecule	ability to compete with heparin for abnormal tau phosphorylation by GSK3β [1]	capacity to protect tau from its abnormal phosphorylation induced by heparin [1]	also measured
CCCCCCCCCCCCCCCCCCNC(=O)C(O)C(O)C(O)C(O)COC1OC(COS(=O)(=O)[O-])C(O)C(O)C1O.[Na+] (centres unmarked) [Mel18monoS, N-Octadecyl-6′-O-Sulfo-Melibioamide Sodium]	do not compete with heparin	–	–
heparin	–	–	phosphorylation of tau on sites characteristic of AD in the presence of heparin [2]: phosphorylation at all tau sites takes place
N-Hexadecyl-D-Glucuronyl-(α-1,4)-D-Xyluronamide [Mal16diOx]	–	less effective than disulphated maltobionamide compounds with the same chain length	–
N-Octadecyl-Tri-O-Sulfo-D-Maltobioamide Trisodium [Mal18triS]	–	maintenance of this capacity to protect tau	–
CCCCCCCCCCCCCCCCNC(=O)C(OS(=O)(=O)[O-])C(OS(=O)(=O)[O-])C(OC1OC(COS(=O)(=O)[O-])C(OS(=O)(=O)[O-])C(OS(=O)(=O)[O-])C1OS(=O)(=O)[O-])C(COS(=O)(=O)[O-])OS(=O)(=O)[O-].[Na+].[Na+].[Na+].[Na+].[Na+].[Na+].[Na+].[Na+] [Mal16perS, N-Hexadecyl-Per-O-Sulfo-D-Maltobioamide Sodium Salt]	–	retains its ability to protect tau	–
N-Octadecyl-D-Glucuronyl-(α-1,4)-D-Xyluronamide [Mal18diOx]	does not compete with heparin	–	–
N-Octadecyl-6,6′-Di-O-Sulfo-Lactobioamide Disodium [Lac18diS]	total competition with heparin	–	–
N-Hexadecyl-6,6′-Di-O-Sulfo-Lactobioamide Disodium [Lac16diS]	total competition with heparin	–	reduction in tau phosphorylation (S262, p-tau/GAPDH) compared to untreated cells ([3]; 1 μg/mL): 25%; reduction in tau phosphorylation (S262, p-tau/GAPDH) compared to untreated cells ([3]; 100 μg/mL): 54%
CCCCCCCCCCCCCCCCCCNC(=O)[C@H](O)[C@@H](O)[C@H](O[C@H]1OC(COS(=O)(=O)[O-])[C@@H](O)C(O)[C@@H]1O)[C@H](O)COS(=O)(=O)[O-].[Na+].[Na+] (stereo partly drawn) [Mal18diS, N-Octadecyl-6,6′-Di-O-Sulfo-D-Maltobionamide Disodium]	total competition with heparin	–	abnormal phosphorylation of tau (p-tau) revealed by AT270 and Ser199/202 antibodies ([1]; in presence of heparin, after 3 h of reaction): inhibited; cytotoxicity (MTT) [4]: not cytotoxic; reduction in tau phosphorylation (S262, p-tau/GAPDH) compared to untreated cells ([3]; 1 μg/mL): ~30%; reduction in tau phosphorylation (S262, p-tau/GAPDH) compared to untreated cells ([3]; 10 μg/mL): ~30%; reduction in tau phosphorylation (S262, p-tau/GAPDH) compared to untreated cells ([3]; 100 μg/mL): up to 60%
N-Hexadecyl-6 or 6′-O-Sulfo-D-Maltobioamide Sodium [Mal16monoS]	–	slight loss of the protective capacity	–
N-Octadecyl-6,6′-Di-O-Sulfo-D-Cellobioamide Disodium [Cell18diS]	total competition with heparin	–	–
N-Hexadecyl-6,6′-Di-O-Sulfo-D-Cellobioamide Disodium [Cell16diS]	total competition with heparin	–	reduction in tau phosphorylation (S262, p-tau/GAPDH) compared to untreated cells ([3]; 1 μg/mL): approximately 34%; reduction in tau phosphorylation (S262, p-tau/GAPDH) compared to untreated cells ([3]; 10 μg/mL): 17%; reduction in tau phosphorylation (S262, p-tau/GAPDH) compared to untreated cells ([3]; 100 μg/mL): 20%
N-Hexadecyl-Tri-O-Sulfo-D-Maltobioamide Trisodium [Mal16triS]	–	maintenance of this capacity to protect tau	–
CCCCCCCCCCCCCCNC(=O)[C@H](O)[C@@H](O)[C@H](O)[C@H](O)CO[C@H]1O[C@H](COS(=O)(=O)[O-])[C@H](O)[C@H](O)[C@H]1O.[Na+] [Mel14monoS, N-Tetradecyl-6′-O-Sulfo-Melibioamide Sodium]	do not compete with heparin	–	–
CCCCCCCCCCCCCCCCNC(=O)[C@H](O)[C@@H](O)[C@H](O)[C@H](O)CO[C@H]1O[C@H](COS(=O)(=O)[O-])[C@H](O)[C@H](O)[C@H]1O.[Na+] [Mel16monoS, N-Hexadecyl-6′-O-Sulfo-Melibioamide Sodium]	do not compete with heparin	–	–
N-Octadecyl-6 or 6′-O-Sulfo-D-Maltobioamide Sodium [Mal18monoS]	–	slight loss of the protective capacity	–
